# Data taken from patent US6642217B2, “Triterpenes having human antifungal and antiyeast activity” (Naturtek, LLC, priority 2000, dated 2003).
# Experiments:
# [1] = tested on: Epidermophyton floccosum; assay: Summary of anti-fungal assays (direct addition, agar dilution, liquid culture); format: cell-based; details: stated in words (Tables 1a/1b, text to Table 5)
# Protocol: (§1) This example summarizes the results of various other assays of the anti-fungal activity of betulin derivatives. Table 5 summarizes results using different assay methods—direct addition, agar dilution, and direct addition to liquid culture, as disclosed in the previous three Examples. In some cases, only one type of assay was done with a compound. In other cases, the compound was tested by multiple assays.
# [2] = tested on: Microsporum canis; assay: Agar dilution method, growth on Sabouraud dextrose agar slants; format: cell-based; design: key: +++: Maximum Fungal Growth; ++: Moderate Fungal Growth; +: Minimum Fungal Growth; +/−: Very little Fungal Growth; −: No Fungal Growth; details: 12th day after inoculation
# Protocol: (§2) Agar dilution method. Sabouraud Dextrose Agar (Difco Laboratories, Michigan) was prepared according to the manufacturer's instructions. Five ml was dispensed in a 100×25 mm tube and autoclaved. To each tube containing 5.0 ml of liquid agar at 45° C., 0.5, 0.25, 0.12, or 0.063 ml of a DMSO solution of the compound was added to give the final indicated concentrations in Table 2. The agar was then solidified in slants. Fungal cultures were inoculated. The slants were incubated at 25-28° C. for 10-12 days, and the growth of the fungus was recorded every second day.
# [3] = tested on: Microsporum gypseum; assay: as above; format: cell-based; design: key: +++: Maximum Fungal Growth; ++: Moderate Fungal Growth; +: Minimum Fungal Growth; +/−: Very little Fungal Growth; −: No Fungal Growth; details: 12th day after inoculation
# Protocol: as §2
# [4] = tested on: Pityrosporum ovale; assay: as above; format: cell-based; design: key: +++: Maximum Fungal Growth; ++: Moderate Fungal Growth; +: Minimum Fungal Growth; +/−: Very little Fungal Growth; −: No Fungal Growth; details: 12th day after inoculation
# Protocol: as §2
# [5] = tested on: Trichophyton rubrum; assay: as above; format: cell-based; design: key: +++: Maximum Fungal Growth; ++: Moderate Fungal Growth; +: Minimum Fungal Growth; +/−: Very little Fungal Growth; −: No Fungal Growth; details: 12th day after inoculation
# Protocol: as §2
# [6] = tested on: Microsporum audouinni; assay: as above; format: cell-based, Microsporum audouinii; design: key: +++: Maximum Fungal Growth; ++: Moderate Fungal Growth; +: Minimum Fungal Growth; +/−: Very little Fungal Growth; −: No Fungal Growth; details: 12th day after inoculation
# Protocol: as §2
# [7] = tested on: Trichophyton tonsuran; assay: as above; format: cell-based, Trichophyton tonsurans; design: key: +++: Maximum Fungal Growth; ++: Moderate Fungal Growth; +: Minimum Fungal Growth; +/−: Very little Fungal Growth; −: No Fungal Growth; details: 12th day after inoculation
# Protocol: as §2
# [8] = tested on: Trichophyton mentagrophyte; assay: as above; format: cell-based, Trichophyton mentagrophytes; design: key to Fungal growth: +++: Maximum Fungal Growth; ++: Moderate Fungal Growth; +: Minimum Fungal Growth; +/−: Very little Fungal Growth; −: No Fungal Growth; details: 12th day after inoculation
# Protocol: as §2
# [9] = tested on: Epidermophyton floccosum; assay: as above; format: cell-based; design: key to Fungal growth: +++: Maximum Fungal Growth; ++: Moderate Fungal Growth; +: Minimum Fungal Growth; +/−: Very little Fungal Growth; −: No Fungal Growth; details: 12th day after inoculation
# Protocol: as §2
# [10] = tested on: Microsporum audouinii; assay: Summary of anti-fungal assays (direct addition, agar dilution, liquid culture); format: cell-based; details: stated in words (Tables 1a/1b, text to Table 5)
# Protocol: as §1
# [11] = tested on: Trichophyton tonsurans; assay: as above; format: cell-based; details: stated in words (Tables 1a/1b, text to Table 5)
# Protocol: as §1
# [12] = tested on: Microsporum audouinni; assay: Direct addition method, solid compound in Sabouraud dextrose agar; format: cell-based, Microsporum audouinii; design: key to Fungal growth: +++: Maximum Fungal Growth; ++: Moderate Fungal Growth; +: Minimum Fungal Growth; +/−: Very little Fungal Growth; −: No Fungal Growth
# Protocol: (§3) Direct addition method. Sabouraud dextrose agar was prepared according to the manufacturer's instructions and 5.0 ml was dispensed in each 100×25 mm tube. The tubes were autoclaved. To each tube containing 5.0 ml of liquid agar at 45° C., 20 mg of solid test compound was added, to give a final concentration of 4 mg/ml. The agar was solidified in slants. The fungal cultures were then innoculated. The slants were incubated at 25-28 ° C. for 10-12 days, and the growth of the fungus was recorded every second day. The results in Table 2 indicate growth at the 12th day of inoculation.
# [13] = tested on: Pityrosporum ovale; assay: Direct addition into the Pityrosporum agar; format: cell-based; design: key to Pityrosporum ovale growth: +++: Maximum Growth; ++: Moderate Growth; +: Minimum Growth; +/−: Very Little Growth; −: No Growth; details: 4 mg/ml in the agar; 18 hours after inoculation
# Protocol: as §3, with “The slants were incubated at 25-28 ° C. for 10-12 days, and the growth of the fungus was recorded every second day. The results in Table 2 indicate growth at the 12th day of inoculation.” left out
# [14] = tested on: Epidermophyton floccosum; assay: Direct addition method, solid compound in Sabouraud dextrose agar; format: cell-based; design: key: +++: Maximum Fungal Growth; ++: Moderate Fungal Growth; +: Minimum Fungal Growth; +/−: Very little Fungal Growth; −: No Fungal Growth; details: 4 mg/mL of agar; 12th day after inoculation
# Protocol: as §3
# [15] = tested on: Microsporum canis; assay: as above; format: cell-based; design: key: +++: Maximum Fungal Growth; ++: Moderate Fungal Growth; +: Minimum Fungal Growth; +/−: Very little Fungal Growth; −: No Fungal Growth; details: 4 mg/mL of agar; 12th day after inoculation
# Protocol: as §3
# [16] = tested on: Pityrosporum ovale; assay: as above; format: cell-based; design: key: +++: Maximum Fungal Growth; ++: Moderate Fungal Growth; +: Minimum Fungal Growth; +/−: Very little Fungal Growth; −: No Fungal Growth; details: 4 mg/mL of agar; 12th day after inoculation
# Protocol: as §3
# [17] = tested on: Trichophyton rubrum; assay: as above; format: cell-based; design: key: +++: Maximum Fungal Growth; ++: Moderate Fungal Growth; +: Minimum Fungal Growth; +/−: Very little Fungal Growth; −: No Fungal Growth; details: 4 mg/mL of agar; 12th day after inoculation
# Protocol: as §3
compound,measurement,setting,value
C=C(C)C1CCC2(COC(=O)COCC(=O)O)CCC3(C)C(CCC4C5(C)CCC(O)C(C)(C)C5CCC43C)C12 (stereo not drawn) [Betulin-28-diglycolate],Active against Epidermophyton floccosum,[1],against Epidermophyton floccosum
C=C(C)C1CCC2(COC(=O)c3ccccc3C(=O)O)CCC3(C)C(CCC4C5(C)CCC(O)C(C)(C)C5CCC43C)C12 (stereo not drawn) [Betulin-28-phthalate],Fungal growth,[2]; 12.5 μg/ml,++
same,Fungal growth,[2]; 25 μg/ml,+
same,Fungal growth,[2]; 50 μg/ml,−
same,Fungal growth,[2]; 100 μg/ml,−
same,Fungal growth,[3]; 12.5 μg/ml,+++
same,Fungal growth,[3]; 25 μg/ml,++
same,Fungal growth,[3]; 50 μg/ml,++
same,Fungal growth,[3]; 100 μg/ml,−
same,Fungal growth,[4]; 12.5 μg/ml,+++
same,Fungal growth,[4]; 25 μg/ml,+++
same,Fungal growth,[4]; 50 μg/ml,++
same,Fungal growth,[4]; 100 μg/ml,−
same,Fungal growth,[5]; 12.5 μg/ml,++
same,Fungal growth,[5]; 25 μg/ml,+
same,Fungal growth,[5]; 50 μg/ml,+
same,Fungal growth,[5]; 100 μg/ml,−
same,Fungal growth,[6]; 12.5 μg/ml,++
same,Fungal growth,[6]; 25 μg/ml,+
same,Fungal growth,[6]; 50 μg/ml,−
same,Fungal growth,[6]; 100 μg/ml,−
same,Fungal growth,[7]; 12.5 μg/ml,++
same,Fungal growth,[7]; 25 μg/ml,+
same,Fungal growth,[7]; 50 μg/ml,−
same,Fungal growth,[7]; 100 μg/ml,−
same,Fungal growth,[8]; 12.5 μg/ml,+++
same,Fungal growth,[8]; 25 μg/ml,++
same,Fungal growth,[8]; 50 μg/ml,+
same,Fungal growth,[8]; 100 μg/ml,−
same,Fungal growth,[9]; 12.5 μg/ml,+++
same,Fungal growth,[9]; 25 μg/ml,++
same,Fungal growth,[9]; 50 μg/ml,+
same,Fungal growth,[9]; 100 μg/ml,−
same,Active against Microsporum audouinii,[10],Microsporum audouinii
same,Active against Trichophyton tonsurans,[11],Trichophyton tonsurans
C=C(C)C1CCC2(COC(=O)CCC(=O)O)CC[C@@]3(C)C(CCC4[C@@]5(C)CCC(O)C(C)(C)C5CC[C@]43C)C12 (stereo partly drawn) [Betulin-28-succinate],Fungal growth,[2]; 125 μg/ml,+
same,Fungal growth,[2]; 250 μg/ml,+
same,Fungal growth,[2]; 500 μg/ml,+
same,Fungal growth,[2]; 1000 μg/ml,−
same,Fungal growth,[3]; 125 μg/ml,++
same,Fungal growth,[3]; 250 μg/ml,+
same,Fungal growth,[3]; 500 μg/ml,+
same,Fungal growth,[3]; 1000 μg/ml,−
same,Fungal growth,[4]; 125 μg/ml,+++
same,Fungal growth,[4]; 250 μg/ml,+++
same,Fungal growth,[4]; 500 μg/ml,+++
same,Fungal growth,[4]; 1000 μg/ml,++
same,Fungal growth,[5]; 125 μg/ml,+
same,Fungal growth,[5]; 250 μg/ml,+
same,Fungal growth,[5]; 500 μg/ml,+
same,Fungal growth,[5]; 1000 μg/ml,−
same,Fungal growth,[6]; 125 μg/ml,+
same,Fungal growth,[6]; 250 μg/ml,+/−
same,Fungal growth,[6]; 500 μg/ml,−
same,Fungal growth,[6]; 1000 μg/ml,−
same,Fungal growth,[7]; 125 μg/ml,++
same,Fungal growth,[7]; 250 μg/ml,+
same,Fungal growth,[7]; 500 μg/ml,+
same,Fungal growth,[7]; 1000 μg/ml,−
same,Fungal growth,[8]; 125 μg/ml,++
same,Fungal growth,[8]; 250 μg/ml,+
same,Fungal growth,[8]; 500 μg/ml,+
same,Fungal growth,[8]; 1000 μg/ml,−
same,Fungal growth,[9]; 125 μg/ml,++
same,Fungal growth,[9]; 250 μg/ml,+
same,Fungal growth,[9]; 500 μg/ml,+
same,Fungal growth,[9]; 1000 μg/ml,−
same,Fungal growth,"[12]; 4 mg/mL of agar, 12th day after inoculation",−
same,best anti-fungal or anti-yeast activity by the direct addition method,[12]; against Microsporum audouinii,against Microsporum audouinii
same,Pityrosporum ovale growth,[13],+
same,Active against Microsporum audouinii,[10],Microsporum audouinii
same,Fungal growth,[14],−
same,Fungal growth,[15],+
same,Fungal growth,[16],−
same,Fungal growth,[17],+
